Data from patent US20230114808A1, “THERAPEUTIC RNA FOR PROSTATE CANCER” (BioNTech SE, priority 2019, published 2023).

Key:
[1] = system: KLK2, PSA (KLK3), PAP (ACPP), HOXB13, and NKX3-1; assay: IFN-γ ELISPOT of splenocytes restimulated with mRNA-electroporated BMDCs after RNA(LIP) vaccination; assay type: in vivo, A2/DR1 mice; conditions: RNAs manufactured under GMP-conditions; study will be performed
[2] = system: KLK2, PSA (KLK3), PAP (ACPP), HOXB13, and NKX3-1; assay: as above; assay type: in vivo, A2/DR1 mice; conditions: 30 μg of each antigen RNA complexed with liposomes, IV, four to five vaccinations, R&D-quality RNA
Experimental: FIG. 18: Vaccination with W_pro1 antigen RNAs leads to antigen-specific T-cell responses. Splenocytes of intravenously vaccinated A2/DR1 mice (n=4-5/group) were restimulated for 20 h with BMDCs electroporated with the corresponding mRNAs as indicated. BMDCs electroporated with irrelevant mRNA were used as control (open symbols, grey bars). Effector function was measured using an IFN-γ ELISPOT assay. Symbols indicate mean values of triplicate wells from individual animals. Bars indicate median of all animals per group.
To obtain more information about the in vivo induction of antigen-specific T cells by the prostate specific antigens KLK2, PSA (KLK3), PAP (ACPP), HOXB13, and NKX3-1, RNA(LIP) products were prepared using RNA of R&D quality and liposomes of GMP-like quality. The RNA(LIP) products were injected intravenously into transgenic mice manipulated to express the human leukocyte antigens HLA-A*0201 and -DRB1*01. Using these mice the priming and expansion of T cells specific for HLA-restricted epitopes can be examined in vivo. A2/DR1 mice were vaccinated four to five times by injection of 30 μg of each antigen RNA complexed with liposomes, followed by isolation of spleen cells (5 days after last vaccination). The priming efficiency of the test items was evaluated by IFN-γ ELISPOT assay after restimulation with bone marrow derived dendritic cells (BMDC) electroporated with the respective mRNA or unrelated control mRNA.

[3] = Respiratory safety (plethysmography) within GLP repeated dose toxicity studies (LPT No. 28864, 30283); assay type: in vivo, mice; conditions: positive control, 30 mg/kg b.w.
Experimental: Respiratory safety was included in repeated dose toxicity studies in mice using RNA DPs coding for TAAs in compliance with GLP (LPT No. 28864 and 30283, for study design see below). For example, plethysmography was tested in the study with RNA(LIP) (LPT No. 30283) with four animals/sex/group treated either with control buffer, a low and a high dose (5 and 50 μg of RNA formulated with 9 μg and 90 μg of liposomes, respectively). A positive control of animals treated with 30 mg Carbamyl-β-methylcholine chloride (bethanecol)/kg b.w. was also included. Plethysmography was performed one day after the 4th to 7th dosing. The tests included the evaluation of respiratory rate, tidal volume, minute volume, inspiratory time, expiratory time, peak expiratory and inspiratory flow, expiratory time, and airway resistance index.

[4] = system: KLK2, KLK3 (PSA), ACPP (PAP), NKX3-1 or HOXB13; assay: IFN-γ ELISPOT of splenocytes restimulated with peptide pools (Example 3); assay type: in vivo, A2/DR1 mice; conditions: 30 μg RNA(Lip) days 1, 8, 15, 22; splenocytes five days after final injection; unpaired t test
Text: IFN-γ ELISPOT analysis of T-cell effectors from the spleen of mice immunized with lipoplex-formulated RNA coding for KLK2(aa 1-261), KLK3(aa 1-261), ACPP(aa 1-418), HOXB13(aa 1-284) or NKX3-1(aa 1-234). Splenocytes obtained five days after the final immunization were re-stimulated with either a peptide pool spanning the respective human protein, P2/P16/P17 peptides or with an irrelevant control peptide CMV pp65(495-504). Dots represent individual animals; horizontal bars indicate the mean±SD of the three animals.
At day 1, day 8, day 15, and day 22 A2/DR1 mice were immunized with 200 μL of a 0.15 mg/mL RNA(Lip) solution which corresponds to 30 μg RNA(Lip).
Splenocytes were obtained from the immunized A2/DR1 mice five days after the final of four RNA(Lip) injections, and in vivo induction ofantigen-specificTcells was determined by ELISPOT analysis. To test for the immunogenicity, isolated splenocytes were re-stimulated with a peptide pool (15 mers, overlapping by 11 amino acids) spanning the respective human proteins, KLK2, KLK3 (PSA), ACPP (PAP), NKX3-1 or HOXB13. […] On all ELISPOT plates, the negative control medium alone induced only a minimal spot count regardless of the animal the splenocytes had been derived from.

Compound | immunogenicity [1] | antigen-specific T-cell responses in vivo [2] | pulmonary parameters (plethysmography) [3] | IFN-γ+ spot count vs restimulation with control peptide CMV pp65 [4]
beta-S-ARCA(D1)-hAg-Kozak-KLK3-GS-P2P16-GS-MITD-FI-A30L70 [RBL039.1] | comparable to the results from earlier studies | induced antigen-specific T-cell responses | – | –
CC(C[N+](C)(C)C)OC(N)=O.[Cl-] (stereo not drawn) [Carbamyl-β-methylcholine chloride] | – | – | expected alterations | –
beta-S-ARCA(D1)-hAg-Kozak-KLK2-GS-P2P16-GS-MITD-FI-A30L70 [RBL038.1] | comparable to the results from earlier studies | induced antigen-specific T-cell responses | – | statistically higher
beta-S-ARCA(D1)-hAg-Kozak-ACPP-GS-P2P16-GS-MITD-FI-A30L70 [RBL040.1] | comparable to the results from earlier studies | induced antigen-specific T-cell responses | – | statistically higher
beta-S-ARCA(D1)-hAg-Kozak-sec-GS-NKX31-GS-P2P16-GS-MITD-FI-A30L70 [RBL045.1] | comparable to the results from earlier studies | induced antigen-specific T-cell responses | – | –
beta-S-ARCA(D1)-hAg-Kozak-sec-GS-HOXB13-GS-P2P16-GS-MITD-FI-A30L70 [RBL041.1] | comparable to the results from earlier studies | induced antigen-specific T-cell responses | – | statistically higher
